The test system of assay [1] is HEK293 cells. The assay can be described thus: Fatty acid uptake assay using HEK293 cells. In kind it is cell-based. As to conditions: Homo sapiens, racemic mixture, FIG. 1. The procedure: HEK293 cells were thawed and centrifuged at 400 g in 1 min, whereafter the supernatant was discarded. The cells were resuspended in DMEM+GlutaMax medium (cat #10566016, Invitrogen) containing 10% fetal calf serum (cat #10270-106, Invitrogen) and 1% penicillin/streptomycin (cat #15140-122, Life Technologies). HEK293 cells were seeded into a T25 flask and incubated at 37 degrees Celsius until 80% confluency. When the HEK293 cells reached confluency, cells were counted and seeded in a 96-well plate and with a volume of 10.000 cells/well in medium (as described above) and incubated overnight. Three wells were without cells serving as controls.
The cells were divided into two groups: 1) Example 1, and 2) Untreated. The fatty acid uptake assay (cat #408-100, BioVision) was carried out according to the protocol from BioVision. The only exception to the protocol was that the measurements in the PerkinElmer Multimode Plate Reader Enspire instrument was running overnight.
Statistics was performed in GraphPad Prism version 8.0. Repeated measure two-way ANOVA were conducted as the groups were tested multiple times followed by a multiple comparison Bonferroni post hoc test.

Assay [2] relates to CLP-induced mouse model of sepsis. Kind of assay: Cecal ligation and puncture (CLP)-induced mouse model of sepsis. The class given is in vivo. The following applies: CLP mice, 5 mg/kg p.o. 1 h after onset of CLP, assessed 24 h after CLP. An excerpt: This study was be carried out on 10-week old, male C57BL/6 mice (n=5-10 per group) (Charles River Laboratories UK Ltd., Kent, UK) weighing 20-30 g kept under standard laboratory conditions. The animals were allowed to acclimatise to laboratory conditions for at least one week before undergoing experiments. Six mice were housed together in ventilated cages lined with absorbent bedding material. Tubes and chewing blocks were placed in all cages for environmental enrichment. All animals were subjected to 12-h light and dark cycles and the temperature was maintained at 19-23° C. All animals had access to a chow diet and water ad libitum. The cages were cleaned approximately every three days, with water being changed daily. […]
Ten-week-old, male C57BL/6 mice were injected with buprenorphine (0.05 mg/kg, i.p.). […] Temperature was monitored via a rectal probe and kept at 37° C. by a homeothermic mat. […] After 24 h, cardiac function was assessed by echocardiography in vivo. […] The organs (heart, lungs, liver, kidney, spleen) and blood was collected for further analysis to quantify organ injury/dysfunction. […]
Cardiac function in mice was assessed by echocardiography in vivo by means of the Vevo 3100 imaging system (VisualSonics, Toronto, Ontario, Canada). […] During echocardiography, the heart rate was recorded, and a rectal thermometer was recorded to measure core body temperature. […]

For the compound `CC(=O)N1CCC(c2nc(-c3ccncc3)cs2)N(C(=O)COc2ccccc2)CC1` (single isomer, unassigned) [Example 1, 1-(4-acetyl-7-(4-(pyridin-4-yl)thiazol-2-yl)-1,4-diazepan-1-yl)-2-phenoxyethan-1-one], the IC50 (as a rule, the concentration that inhibits the measured activity by half) in assay [1] was 0.3 µM. In addition, the heart rate result in assay [2] (FIG. 2A) is “maintained”. In addition, the pulmonary artery flow entry in assay [2] (FIG. 2G) was “maintained”.

(Values after patent US20240293424A1, “CARNITINE-PALMITOYL-TRANSFERASE-1 (CPT-1) INHIBITORS FOR USE IN A METHOD OF PREVENTING OR TREATING SEPSIS IN A MAMMALIAN SUBJECT” (2N PHARMA APS, priority 2021, published 2024).)
